Data: patent US20260028365A1 (BIOGEN MA INC., priority 2022, published 2026)
Counter-ions that a name gives are not always drawn. Like-named read-outs stand apart in the source and are kept apart here.

Tests used:
Tyk2 = Tyk2 (Homo sapiens (Human), UniProt P29597); assay: pSTAT4 Cell Assay (MSD, NK92 cells); assay type: cell-based
JH2 domain of human Tyk2 = JH2 domain of human Tyk2 (Homo sapiens (Human), UniProt P29597); assay: JH2 Biochemical Assay (TR-FRET probe displacement); assay type: binding
Sequence of JH2 domain of human Tyk2 (P29597 575-876): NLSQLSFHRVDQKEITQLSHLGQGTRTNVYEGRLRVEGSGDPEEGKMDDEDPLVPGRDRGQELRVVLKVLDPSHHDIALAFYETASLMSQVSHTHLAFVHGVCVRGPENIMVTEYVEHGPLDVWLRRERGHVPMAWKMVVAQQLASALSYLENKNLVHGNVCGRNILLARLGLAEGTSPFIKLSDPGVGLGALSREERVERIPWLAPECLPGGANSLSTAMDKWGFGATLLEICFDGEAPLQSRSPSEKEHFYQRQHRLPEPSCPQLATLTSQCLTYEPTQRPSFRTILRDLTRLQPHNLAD

[1] = TR-FRET probe displacement, JH2 domain of human Tyk2
[2] = TR-FRET probe displacement, JH2 domain
[3] = JH2 domain of human Tyk2, TR-FRET probe displacement

Sequence of Tyk2 (P29597 whole entry, the tested form may be a part): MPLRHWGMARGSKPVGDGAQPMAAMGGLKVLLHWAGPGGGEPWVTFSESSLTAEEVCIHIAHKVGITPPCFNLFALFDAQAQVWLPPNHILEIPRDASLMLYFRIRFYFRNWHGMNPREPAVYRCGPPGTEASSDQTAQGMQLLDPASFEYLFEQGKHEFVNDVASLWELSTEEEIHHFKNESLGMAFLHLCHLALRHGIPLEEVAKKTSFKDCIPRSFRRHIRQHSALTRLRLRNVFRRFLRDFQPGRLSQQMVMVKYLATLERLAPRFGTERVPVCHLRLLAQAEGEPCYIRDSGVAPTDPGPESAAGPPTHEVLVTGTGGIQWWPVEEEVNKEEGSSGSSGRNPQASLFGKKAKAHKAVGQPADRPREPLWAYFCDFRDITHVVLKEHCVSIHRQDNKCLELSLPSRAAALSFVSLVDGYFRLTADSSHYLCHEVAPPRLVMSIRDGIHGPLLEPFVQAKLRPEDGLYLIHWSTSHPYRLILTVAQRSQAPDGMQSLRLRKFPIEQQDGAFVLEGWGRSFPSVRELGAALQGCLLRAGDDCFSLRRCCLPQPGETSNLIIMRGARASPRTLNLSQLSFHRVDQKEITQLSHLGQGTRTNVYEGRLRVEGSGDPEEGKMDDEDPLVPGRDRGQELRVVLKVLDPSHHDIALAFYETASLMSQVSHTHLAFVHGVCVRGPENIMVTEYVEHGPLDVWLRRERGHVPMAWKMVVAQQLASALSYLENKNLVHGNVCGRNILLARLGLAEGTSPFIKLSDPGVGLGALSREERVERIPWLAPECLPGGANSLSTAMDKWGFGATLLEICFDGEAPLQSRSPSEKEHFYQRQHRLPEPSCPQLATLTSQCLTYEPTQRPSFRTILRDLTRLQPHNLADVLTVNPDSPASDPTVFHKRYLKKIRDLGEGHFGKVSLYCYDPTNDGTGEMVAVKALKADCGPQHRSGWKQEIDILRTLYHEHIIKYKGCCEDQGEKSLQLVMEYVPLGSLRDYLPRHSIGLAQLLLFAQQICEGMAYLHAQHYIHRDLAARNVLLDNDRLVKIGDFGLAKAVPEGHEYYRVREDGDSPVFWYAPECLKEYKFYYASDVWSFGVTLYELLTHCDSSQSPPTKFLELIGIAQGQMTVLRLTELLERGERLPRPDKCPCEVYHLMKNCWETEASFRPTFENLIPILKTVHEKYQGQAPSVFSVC

| SMILES | IC50 (Tyk2; MSD) [nM] | IC50 (JH2 domain of human Tyk2; [1]) [nM] | IC50 (Tyk2) [nM] | IC50 (JH2 domain of human Tyk2; [2]) [nM] | IC50 (JH2 domain of human Tyk2; [3]) [nM] |
| --- | --- | --- | --- | --- | --- |
| CC(=O)Nc1cc(Nc2cc(C)nc(C(C)(F)F)n2)c(OCc2ccsn2)cn1 [Example 323, N-(4-((2-(1,1-difluoroethyl)-6-methylpyrimidin-4-yl)amino)-5-(isothiazol-3-ylmethoxy)pyridin-2-yl)acetamide] | ≤ 10 | ≤ 10 |  |  |  |
| CCc1cc(Nc2cc(NC(C)=O)ncc2F)nc(C(C)(F)F)n1 [Example 816, N-(4-((2-(1,1-difluoroethyl)-6-ethylpyrimidin-4-yl)amino)-5-fluoropyridin-2-yl)acetamide] |  |  | 100 to 1000 | ≤ 10 |  |
| CCOc1cnc(NC(C)=O)cc1Nc1ccnc(C(C)(C)F)n1 [Example 31, N-(5-ethoxy-4-((2-(2-fluoropropan-2-yl)pyrimidin-4-yl)amino)pyridin-2-yl)acetamide] | 10 to 100 | ≤ 10 |  |  |  |
| CC(=O)Nc1cc(Nc2cc(C)nc(C(C)(F)F)n2)c(-c2ccccn2)cn1 [Example 591, N-(4′-((2-(1,1-difluoroethyl)-6-methylpyrimidin-4-yl)amino)-[2,3′-bipyridin]-6′-yl)acetamide] | ≤ 10 |  |  |  | ≤ 10 |
| CC(=O)Nc1cc(Nc2cc(C)nc(C(C)(F)F)n2)c(OCC2CCC(=O)O2)cn1 (stereo not shown) [Example 499, N-(4-((2-(1,1-difluoroethyl)-6-methylpyrimidin-4-yl)amino)-5-((5-oxotetrahydrofuran-2-yl)methoxy)pyridin-2-yl)acetamide] | 10 to 100 |  |  |  | ≤ 10 |
| COCCOc1nccc(Nc2cc(NC(C)=O)ncc2-c2ccn(C)n2)n1 [Example 549, N-(4-((2-(2-methoxyethoxy)pyrimidin-4-yl)amino)-5-(1-methyl-1H-pyrazol-3-yl)pyridin-2-yl)acetamide] | 100 to 1000 |  |  |  | ≤ 10 |
| CC(=O)Nc1cc(Nc2cc(C)nc(C(C)(F)F)n2)c(OC[C@@H](C)OC(C)(C)C)cn1 [Example 321, (R)-N-(5-(2-(tert-butoxy)propoxy)-4-((2-(1,1-difluoroethyl)-6-methylpyrimidin-4-yl)amino)pyridin-2-yl)acetamide] | 10 to 100 | ≤ 10 |  |  |  |
| CC(=O)Nc1cc(Nc2cccc(C3CCOC3)n2)c(-c2ccn(C)n2)cn1 (stereo not shown) [Example 208, N-(5-(1-methyl-1H-pyrazol-3-yl)-4-((6-(tetrahydrofuran-3-yl)pyridin-2-yl)amino)pyridin-2-yl)acetamide] | 10 to 100 | ≤ 10 |  |  |  |
| COc1nccc(-c2cnc(NC(C)=O)cc2Nc2ccnc(C(C)(C)F)n2)n1 [Example 180, N-(4-((2-(2-fluoropropan-2-yl)pyrimidin-4-yl)amino)-5-(2-methoxypyrimidin-4-yl)pyridin-2-yl)acetamide] | ≤ 10 | ≤ 10 |  |  |  |
| [2H]C([2H])([2H])C(=O)Nc1cc(Nc2cc(C)nc(C(C)(F)F)n2)c(-c2ccc(OC)nn2)cn1 [Example 213, N-(4-((2-(1,1-difluoroethyl)-6-methylpyrimidin-4-yl)amino)-5-(6-methoxypyridazin-3-yl)pyridin-2-yl)acetamide-2,2,2-d3] | ≤ 10 | ≤ 10 |  |  |  |
| COc1cc(COc2cnc(NC(C)=O)cc2Nc2cc(C)nc(C(C)(F)F)n2)ncn1 [Example 346, N-(4-((2-(1,1-difluoroethyl)-6-methylpyrimidin-4-yl)amino)-5-((6-methoxypyrimidin-4-yl)methoxy)pyridin-2-yl)acetamide] | 10 to 100 | ≤ 10 |  |  |  |
| CCc1cc(Nc2cc(NC(C)=O)ncc2-c2nc(C)no2)nc(C(C)(F)F)n1 [Example 281, N-(4-((2-(1,1-difluoroethyl)-6-ethylpyrimidin-4-yl)amino)-5-(3-methyl-1,2,4-oxadiazol-5-yl)pyridin-2-yl)acetamide] | 10 to 100 | ≤ 10 |  |  |  |
| CC(=O)Nc1cc(Nc2cccc(C(C)(C)F)n2)c(-c2ncc(F)cn2)cn1 [Example 215, N-(4-((6-(2-fluoropropan-2-yl)pyridin-2-yl)amino)-5-(5-fluoropyrimidin-2-yl)pyridin-2-yl)acetamide] | 10 to 100 | ≤ 10 |  |  |  |
| CCc1cc(Nc2cc(NC(C)=O)ncc2-c2ccc(OCCOC)nn2)nc(C(C)(F)F)n1 [Example 269, N-(4-((2-(1,1-difluoroethyl)-6-ethylpyrimidin-4-yl)amino)-5-(6-(2-methoxyethoxy)pyridazin-3-yl)pyridin-2-yl)acetamide trifluoroacetate] | ≤ 10 | ≤ 10 |  |  |  |
| CC(=O)Nc1cc(Nc2cc(C)nc(C(C)(F)F)n2)c(O[C@H]2C[C@@H](F)C2)cn1 [Example 412, N-(4-((2-(1,1-difluoroethyl)-6-methylpyrimidin-4-yl)amino)-5-((1s,3s)-3-fluorocyclobutoxy)pyridin-2-yl)acetamide] | 10 to 100 |  |  |  | ≤ 10 |
| CC(=O)Nc1cc(Nc2cc(C)nc(C(C)(F)F)n2)c(-c2ccsn2)cn1 [Example 761, N-(4-((2-(1,1-difluoroethyl)-6-methylpyrimidin-4-yl)amino)-5-(isothiazol-3-yl)pyridin-2-yl)acetamide] |  |  | ≥ 1000 | ≤ 10 |  |

| SMILES | IC50 (Tyk2; MSD) [nM] | IC50 (JH2 domain of human Tyk2; [1]) [nM] | IC50 (Tyk2) [nM] | IC50 (JH2 domain of human Tyk2; [2]) [nM] | IC50 (JH2 domain of human Tyk2; [3]) [nM] |
| --- | --- | --- | --- | --- | --- |
| CC(=O)Nc1cc(Nc2cc(C)nc(C(C)(F)F)n2)c(OCc2cnn(C)c2)cn1 [Example 508, N-(4-((2-(1,1-difluoroethyl)-6-methylpyrimidin-4-yl)amino)-5-((1-methyl-1H-pyrazol-4-yl)methoxy)pyridin-2-yl)acetamide] | 10 to 100 |  |  |  | ≤ 10 |
| COc1ccc(-c2cnc(NC(C)=O)cc2Nc2cc(OC3CC3)nc(C(C)(F)F)n2)nn1 [Example 833, N-(4-((6-cyclopropoxy-2-(1,1-difluoroethyl)pyrimidin-4-yl)amino)-5-(6-methoxypyridazin-3-yl)pyridin-2-yl)acetamide] |  |  | ≤ 10 | ≤ 10 |  |
| COC1(COc2cnc(NC(C)=O)cc2Nc2cc(C)nc(C(C)(F)F)n2)CCOCC1 [Example 337, N-(4-((2-(1,1-difluoroethyl)-6-methylpyrimidin-4-yl)amino)-5-((4-methoxytetrahydro-2H-pyran-4-yl)methoxy)pyridin-2-yl)acetamide] | 10 to 100 | ≤ 10 |  |  |  |
| CCc1cc(Nc2cc(NC(C)=O)ncc2-c2ccncn2)nc(C(C)(C)F)n1 [Example 801, N-(4-((6-ethyl-2-(2-fluoropropan-2-yl)pyrimidin-4-yl)amino)-5-(pyrimidin-4-yl)pyridin-2-yl)acetamide] |  |  | ≤ 10 | ≤ 10 |  |
| COc1nccc(-c2cnc(NC(C)=O)cc2Nc2cc(C)nc(C(C)(C)F)n2)n1 [Example 181, N-(4-((2-(2-fluoropropan-2-yl)-6-methylpyrimidin-4-yl)amino)-5-(2-methoxypyrimidin-4-yl)pyridin-2-yl)acetamide] | ≤ 10 | ≤ 10 |  |  |  |
| CCc1cc(Nc2cc(NC(C)=O)ncc2-c2cnc(NC)cn2)nc(C(C)(F)F)n1 [Example 860, N-(4-((2-(1,1-difluoroethyl)-6-ethylpyrimidin-4-yl)amino)-5-(5-(methylamino)pyrazin-2-yl)pyridin-2-yl)acetamide] |  |  | ≥ 1000 | 100 to 1000 |  |
| CC(=O)Nc1cc(Nc2cc(C)nc(C(C)(F)F)n2)c(-c2ccc(C)nn2)cn1 [Example 219, N-(4-((2-(1,1-difluoroethyl)-6-methylpyrimidin-4-yl)amino)-5-(6-methylpyridazin-3-yl)pyridin-2-yl)acetamide] | ≤ 10 | ≤ 10 |  |  |  |
| CC(=O)Nc1cc(Nc2ccnc(C(C)(F)F)n2)c(-c2ccc(CN3C[C@@H]4C[C@H]3CO4)cn2)cn1 [Example 885, N-(5-(((1S,4S)-2-oxa-5-azabicyclo[2.2.1]heptan-5-yl)methyl)-4′-((2-(1,1-difluoroethyl)pyrimidin-4-yl)amino)-[2,3′-bipyridin]-6′-yl)acetamide] |  |  | ≤ 10 | ≤ 10 |  |
| CC(=O)Nc1cc(Nc2cc(C)nc(C(C)(F)F)n2)c(-c2cc(C(C)(C)N(C)C)n(C)n2)cn1 [Example 802, N-(4-((2-(1,1-difluoroethyl)-6-methylpyrimidin-4-yl)amino)-5-(5-(2-(dimethylamino)propan-2-yl)-1-methyl-1H-pyrazol-3-yl)pyridin-2-yl)acetamide] |  |  | ≤ 10 | ≤ 10 |  |
| CC(=O)Nc1cc(Nc2cc(C)nc(C(C)(F)F)n2)c(-c2ccn3ncnc3n2)cn1 [Example 536, N-(5-([1,2,4]triazolo[1,5-a]pyrimidin-5-yl)-4-((2-(1,1-difluoroethyl)-6-methylpyrimidin-4-yl)amino)pyridin-2-yl)acetamide] | ≤ 10 |  |  |  | ≤ 10 |
| COCc1ccc(-c2cnc(NC(C)=O)cc2Nc2cncc(OC(F)F)n2)nc1 [Example 588, N-(4′-((6-(difluoromethoxy)pyrazin-2-yl)amino)-5-(methoxymethyl)-[2,3′-bipyridin]-6′-yl)acetamide] | 10 to 100 |  |  |  | ≤ 10 |
| CC(=O)Nc1cc(Nc2cc(C)nc(C(C)(F)F)n2)c(-c2cc(C)ncn2)cn1 [Example 197, N-(4-((2-(1,1-difluoroethyl)-6-methylpyrimidin-4-yl)amino)-5-(6-methylpyrimidin-4-yl)pyridin-2-yl)acetamide] | ≤ 10 | ≤ 10 |  |  |  |
| CC(=O)Nc1cc(Nc2ccnc(C(C)(F)F)n2)c(-c2ccc(CNC3CCOCC3)cn2)cn1 [Example 883] |  |  | ≤ 10 | ≤ 10 |  |
| COc1nccc(-c2cnc(NC(C)=O)cc2Nc2cccc(C(C)(F)F)n2)n1 [Example 177, N-(4-((6-(1,1-difluoroethyl)pyridin-2-yl)amino)-5-(2-methoxypyrimidin-4-yl)pyridin-2-yl)acetamide] | ≤ 10 | ≤ 10 |  |  |  |
| COc1cc(-c2cnc(NC(C)=O)cc2Nc2ccnc(C(C)(F)F)n2)ncc1F [Example 699, N-(4′-((2-(1,1-difluoroethyl)pyrimidin-4-yl)amino)-5-fluorO4-methoxy-[2,3′-bipyridin]-6′-yl)acetamide] | ≥ 1000 |  |  |  | 10 to 100 |
| CC(=O)Nc1cc(Nc2cc(C)nc(C(C)(F)F)n2)c(-n2ccc(C)n2)cn1 [Example 597, N-(4-((2-(1,1-difluoroethyl)-6-methylpyrimidin-4-yl)amino)-5-(3-methyl-1H-pyrazol-1-yl)pyridin-2-yl)acetamide] | 10 to 100 |  |  |  | ≤ 10 |
